From patent US20080032989A1, “Method of treating inflammatory diseases using tyroskine kinase inhibitors” (priority 2006, published 2008)
pIC50: −log10 of the molar value. Values joined by “and” are separate entries in the source; they are usually repeats but may differ in a detail not shown here. Equal entries are not always repeated. “Also recorded” adds a separate entry of the source. Where two headings read alike, the source gives them in different places.

Assays:
PDGFR [1] = test system: PDGFR
[2] = test system: established collagen-induced arthritis (CIA) in DBA/1 mice; test: Treatment of established collagen-induced arthritis (CIA); format: in vivo, mouse
[3] = test system: collagen-induced arthritis (CIA) in DBA/1 mice; details: for severity of CIA (scores, paw measurements), direct comparison study: CGP53716 daily i.p. from 1 day prior to induction
PDGFR [4] = details: cited from earlier work
FGFR = details: literature, cited from earlier work
[5] = rats, oral 50 mg/kg; cited from earlier work
[6] = mice, cited from earlier work; for trough plasma level: 15 hours after dosing
EGFR = EGFR (Homo sapiens, UniProt P00533); details: Table 7; cited from earlier work
EGFR, sequence (P00533 25-1210, species assumed): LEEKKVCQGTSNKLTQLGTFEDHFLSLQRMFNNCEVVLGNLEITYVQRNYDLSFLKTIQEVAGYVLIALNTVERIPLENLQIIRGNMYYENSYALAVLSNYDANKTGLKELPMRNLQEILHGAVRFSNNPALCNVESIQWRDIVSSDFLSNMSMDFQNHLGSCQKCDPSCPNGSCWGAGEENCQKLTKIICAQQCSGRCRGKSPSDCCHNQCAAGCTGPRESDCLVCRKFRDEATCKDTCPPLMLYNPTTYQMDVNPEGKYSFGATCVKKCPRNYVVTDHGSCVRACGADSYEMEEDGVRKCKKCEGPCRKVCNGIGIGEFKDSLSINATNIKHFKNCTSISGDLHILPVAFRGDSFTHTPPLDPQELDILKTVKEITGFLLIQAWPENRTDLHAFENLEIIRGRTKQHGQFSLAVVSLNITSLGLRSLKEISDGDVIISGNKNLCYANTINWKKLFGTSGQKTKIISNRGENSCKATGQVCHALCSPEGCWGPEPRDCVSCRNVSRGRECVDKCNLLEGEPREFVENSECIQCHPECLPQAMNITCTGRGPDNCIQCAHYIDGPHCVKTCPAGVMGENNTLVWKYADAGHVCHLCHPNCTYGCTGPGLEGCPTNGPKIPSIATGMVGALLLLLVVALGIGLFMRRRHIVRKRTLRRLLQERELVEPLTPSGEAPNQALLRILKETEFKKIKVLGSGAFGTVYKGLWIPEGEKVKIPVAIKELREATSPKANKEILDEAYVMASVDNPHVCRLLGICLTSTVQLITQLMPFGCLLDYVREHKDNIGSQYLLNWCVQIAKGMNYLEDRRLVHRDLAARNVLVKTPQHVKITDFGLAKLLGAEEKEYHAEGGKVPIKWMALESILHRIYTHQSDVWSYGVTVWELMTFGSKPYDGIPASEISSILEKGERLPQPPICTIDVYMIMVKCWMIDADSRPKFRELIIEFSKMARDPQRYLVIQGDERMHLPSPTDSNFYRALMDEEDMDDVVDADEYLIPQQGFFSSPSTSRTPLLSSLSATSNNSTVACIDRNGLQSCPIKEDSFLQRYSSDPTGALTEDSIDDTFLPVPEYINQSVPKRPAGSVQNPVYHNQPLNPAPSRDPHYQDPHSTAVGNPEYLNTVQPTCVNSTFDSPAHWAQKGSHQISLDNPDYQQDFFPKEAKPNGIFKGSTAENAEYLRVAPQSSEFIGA

[7] = test system: B cells from naïve DBA/1 mice
EAE in C57B/6 mice = test: Experimental autoimmune encephalomyelitis (EAE); format: in vivo, mouse; details: 100 mg/kg twice daily vs PBS-vehicle
anti-CII T cells = details: mouse, 24 h
synovial fluid monocytes = test: M-CSF-induced differentiation of RA synovial fluid monocytes to macrophages (morphology); format: cell-based, human; details: 5 μM imatinib with M-CSF, 72 hours
Description: H. Macrophage isolation and stimulation. […]. […]

[8] = test system: autoreactive B cell responses in mice with CIA; test: Synovial array profiling of serum autoantibodies in CIA mice; format: in vivo, mouse; details: 100 mg/kg imatinib, day 49 sera
Method: M. Synovial array analysis. As described (Robinson, W. H., et al., Nat Med 8:295-301, (2002); Hueber, W., et al., Arthritis Rheum 52:2645-2655, (2005)), 500+ peptides and proteins representing autoantigens were printed on SuperEpoxy slides (TeleChem), arrays were incubated with 1:150 dilutions of mouse sera, followed by Cy3-labeled anti-mouse IgG/M antibody (Jackson Immunoresearch), and scanned using a GenePix 4000B scanner. Median feature intensities for each antigen were calculated from the 4-8 duplicate features representing each antigen.
. A robotic microarrayer was used to produce synovial arrays containing a spectrum of proteins and peptides representing candidate autoantigens in RA and CIA (Robinson, W. H., et al., Nat Med 8:295-301, (2002); Hueber, W., et al., Arthritis Rheum 52:2645-2655, (2005)). Arrays were incubated with 1:150 dilutions of sera, autoantibody binding detected with Cy3-labeled anti-mouse IgG/M, and arrays scanned and median fluorescence for each antigen determined. […]. Cluster and TreeView software was applied to order and display the array reactivity as a heatmap. […]

C1.MC/57.1 mast cells = test: SCF-stimulated mast cell cytokine production; details: 100 ng/mL SCF, 48 hrs, imatinib 1 μM and 5 μM
c-Kit [9] = target: T1, c-Kit (Mus musculus, UniProt P05532); test: SCF-induced mast cell signaling, immunoblot and RPP lysate array; format: cell-based; details: mast cells
T1 construct: endogenous in cells; host or cells: C1.MC/57.1 mouse mast cell line
T1 sequence (P05532 25-979): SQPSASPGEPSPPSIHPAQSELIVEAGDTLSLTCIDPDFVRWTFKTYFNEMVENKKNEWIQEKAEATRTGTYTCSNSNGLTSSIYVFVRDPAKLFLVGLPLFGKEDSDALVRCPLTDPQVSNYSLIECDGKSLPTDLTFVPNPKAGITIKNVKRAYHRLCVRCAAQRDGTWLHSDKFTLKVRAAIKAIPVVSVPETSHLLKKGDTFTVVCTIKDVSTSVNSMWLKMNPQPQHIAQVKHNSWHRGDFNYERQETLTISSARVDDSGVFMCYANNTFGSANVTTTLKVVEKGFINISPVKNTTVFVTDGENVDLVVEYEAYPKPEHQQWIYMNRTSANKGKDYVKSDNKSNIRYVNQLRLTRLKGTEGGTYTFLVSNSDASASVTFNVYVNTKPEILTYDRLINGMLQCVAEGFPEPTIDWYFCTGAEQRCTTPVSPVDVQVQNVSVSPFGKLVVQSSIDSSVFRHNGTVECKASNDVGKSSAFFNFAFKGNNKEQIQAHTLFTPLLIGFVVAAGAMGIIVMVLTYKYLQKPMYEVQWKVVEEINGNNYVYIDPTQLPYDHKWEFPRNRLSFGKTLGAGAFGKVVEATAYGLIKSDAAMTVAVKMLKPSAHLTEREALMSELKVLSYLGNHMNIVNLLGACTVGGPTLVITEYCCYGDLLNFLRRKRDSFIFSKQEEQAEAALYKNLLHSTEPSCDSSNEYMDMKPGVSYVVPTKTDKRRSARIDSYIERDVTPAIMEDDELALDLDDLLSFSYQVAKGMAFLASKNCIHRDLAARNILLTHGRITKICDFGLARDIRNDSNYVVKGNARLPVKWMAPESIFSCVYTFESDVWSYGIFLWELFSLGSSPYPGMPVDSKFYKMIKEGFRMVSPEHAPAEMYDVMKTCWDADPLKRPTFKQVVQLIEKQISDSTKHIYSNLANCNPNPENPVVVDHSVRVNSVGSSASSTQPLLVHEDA

[10] = test system: splenocytes expressing CII-specific TCR
Abl = Abl (Homo sapiens, UniProt P00519); details: literature; cited from earlier work
Abl, sequence (P00519 whole entry, species assumed): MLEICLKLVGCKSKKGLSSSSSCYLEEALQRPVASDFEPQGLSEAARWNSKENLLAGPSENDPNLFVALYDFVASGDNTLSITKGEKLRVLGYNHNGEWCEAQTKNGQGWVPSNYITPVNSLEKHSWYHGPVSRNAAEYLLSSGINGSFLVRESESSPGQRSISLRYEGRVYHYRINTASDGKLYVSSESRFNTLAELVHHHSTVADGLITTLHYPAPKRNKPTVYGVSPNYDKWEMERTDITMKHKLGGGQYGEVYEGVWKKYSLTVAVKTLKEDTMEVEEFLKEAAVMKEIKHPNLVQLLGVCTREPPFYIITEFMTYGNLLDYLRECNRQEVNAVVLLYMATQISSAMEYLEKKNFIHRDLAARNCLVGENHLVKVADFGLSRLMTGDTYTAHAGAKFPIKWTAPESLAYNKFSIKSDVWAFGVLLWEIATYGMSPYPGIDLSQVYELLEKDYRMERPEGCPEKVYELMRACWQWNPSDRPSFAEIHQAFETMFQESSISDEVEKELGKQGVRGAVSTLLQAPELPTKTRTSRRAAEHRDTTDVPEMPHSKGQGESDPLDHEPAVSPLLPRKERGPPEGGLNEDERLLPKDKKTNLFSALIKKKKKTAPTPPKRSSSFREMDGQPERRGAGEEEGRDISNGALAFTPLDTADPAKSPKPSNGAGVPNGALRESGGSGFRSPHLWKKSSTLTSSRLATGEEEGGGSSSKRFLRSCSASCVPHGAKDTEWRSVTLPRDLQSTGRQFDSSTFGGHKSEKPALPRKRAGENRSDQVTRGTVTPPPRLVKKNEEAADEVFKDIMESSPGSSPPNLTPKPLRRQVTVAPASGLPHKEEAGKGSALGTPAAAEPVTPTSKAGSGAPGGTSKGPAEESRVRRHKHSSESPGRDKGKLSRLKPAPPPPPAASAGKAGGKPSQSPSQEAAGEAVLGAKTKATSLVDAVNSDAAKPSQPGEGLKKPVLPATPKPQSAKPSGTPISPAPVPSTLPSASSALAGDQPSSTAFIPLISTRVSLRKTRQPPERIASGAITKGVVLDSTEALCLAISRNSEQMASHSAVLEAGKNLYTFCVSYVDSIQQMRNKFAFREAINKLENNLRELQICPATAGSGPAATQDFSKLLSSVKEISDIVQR

[11] = I.P. 100 mg/kg, cited from earlier work
c-Kit [12] = target: T2, c-Kit (Homo sapiens, UniProt P10721); details: Table 5; read-out: Kit Inhibitory Profile (IC50); cited from earlier work
Target sequence in this assay (P10721 26-976): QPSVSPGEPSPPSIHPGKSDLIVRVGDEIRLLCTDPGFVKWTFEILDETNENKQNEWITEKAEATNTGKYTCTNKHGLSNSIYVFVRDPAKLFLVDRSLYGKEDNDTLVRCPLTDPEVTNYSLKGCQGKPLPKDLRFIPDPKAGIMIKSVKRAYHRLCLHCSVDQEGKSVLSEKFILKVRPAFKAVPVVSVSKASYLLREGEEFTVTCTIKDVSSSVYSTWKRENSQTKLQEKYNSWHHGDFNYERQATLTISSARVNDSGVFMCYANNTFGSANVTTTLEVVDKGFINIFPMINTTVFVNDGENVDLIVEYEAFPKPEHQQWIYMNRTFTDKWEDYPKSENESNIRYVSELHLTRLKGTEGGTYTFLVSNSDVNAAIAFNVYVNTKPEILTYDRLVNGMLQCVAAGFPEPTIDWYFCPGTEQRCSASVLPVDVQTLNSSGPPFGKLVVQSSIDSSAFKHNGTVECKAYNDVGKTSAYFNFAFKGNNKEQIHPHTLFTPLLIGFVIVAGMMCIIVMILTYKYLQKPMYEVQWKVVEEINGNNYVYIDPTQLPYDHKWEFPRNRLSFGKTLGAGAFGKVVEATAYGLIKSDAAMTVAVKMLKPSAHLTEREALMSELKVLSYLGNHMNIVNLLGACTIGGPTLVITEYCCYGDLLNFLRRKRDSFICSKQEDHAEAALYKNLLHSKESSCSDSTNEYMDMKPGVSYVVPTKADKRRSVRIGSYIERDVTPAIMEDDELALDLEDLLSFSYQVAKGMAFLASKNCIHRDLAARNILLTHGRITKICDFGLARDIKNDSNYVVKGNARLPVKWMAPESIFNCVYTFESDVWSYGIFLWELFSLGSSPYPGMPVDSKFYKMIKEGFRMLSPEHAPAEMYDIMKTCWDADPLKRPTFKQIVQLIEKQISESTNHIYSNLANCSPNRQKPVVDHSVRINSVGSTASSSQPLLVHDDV

c-Kit [13] = target: T2, c-Kit; test: In vitro c-Kit phosphorylation assay (HTScan c-Kit Kinase Assay); format: biochemical; parameters: purchased Cell Signaling; details: 30 minutes, time-resolved fluorescence, FIG. 11A
Target sequence in this assay (P10721 544-976 limits assumed): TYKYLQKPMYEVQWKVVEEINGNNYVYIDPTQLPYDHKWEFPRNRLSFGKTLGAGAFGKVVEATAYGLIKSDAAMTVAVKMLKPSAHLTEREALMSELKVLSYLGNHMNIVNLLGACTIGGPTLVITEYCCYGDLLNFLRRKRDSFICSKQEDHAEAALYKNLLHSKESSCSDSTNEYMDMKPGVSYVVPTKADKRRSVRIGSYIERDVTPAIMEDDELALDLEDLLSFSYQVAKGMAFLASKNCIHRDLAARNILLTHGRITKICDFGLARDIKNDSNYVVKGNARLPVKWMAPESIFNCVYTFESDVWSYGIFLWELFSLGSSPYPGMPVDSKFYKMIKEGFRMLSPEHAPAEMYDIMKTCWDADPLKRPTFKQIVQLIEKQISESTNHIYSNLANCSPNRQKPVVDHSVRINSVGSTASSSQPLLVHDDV

[14] = test system: EGFR, FGFR, insulin receptors, Src, Lyn, PKA and PKC; details: clinically relevant concentrations; cited from earlier work
[15] = read-out: IC50 for PDGFbb-induced FLS proliferation (PDGFR), FLS from human RA patient, H3-thymidine incorporation, FIG. 11B
[16] = Table 5, read-out: PDGFR Inhibitory Profile (IC50)
[17] = Table 7, read-out: PDGFR Inhibitory profile (with IC50s when available)
[18] = CII-specific (anti-CII) TCR transgenic, 1 μM
[19] = CII-specific (anti-CII) TCR transgenic, 5 μM
[20] = CII-specific (anti-CII) TCR transgenic, 10 μM
[21] = CII-specific TCR transgenic, 1 μM
[22] = CII-specific TCR transgenic, 5 μM
[23] = CII-specific TCR transgenic, 10 μM
[24] = 0-5 μM imatinib, SCF 10 minutes, immunoblot

COc1ccc(COc2ccc(Cc3cnc(N)nc3N)cc2OC)cc1 [GW2580]
pIC50 (PDGFR [1]; [15]): 5.37 and 5.36
pIC50 (PDGFR [1]; read-out: PDGFR Inhibitory Profile (IC50), Table 5, value referenced to FIG. 11): 5.37
severity of established CIA (mean visual arthritis score, paw thickness) ([2]; 50 mg/kg for 5 days vs vehicle): highly effective at treating established collagen-induced arthritis; also recorded: reduced the severity of arthritis

CC(C)c1c(C(=O)Nc2ccccc2)c(-c2ccccc2)c(-c2ccc(F)cc2)n1CC[C@@H](O)C[C@@H](O)CC(=O)O [Atorvastatin]
clinical scores of CIA ([3]; atorvastatin alone, 1.25 to 20 mg/kg, FIG. 16B): not effective at decreasing the clinical scores of CIA

Cc1[nH]c(/C=C2\C(=O)Nc3ccc(Br)cc32)c(C)c1CCC(=O)O [SU9518]
pIC50 (PDGFR [4]; [16]): 7.30
pIC50 (PDGFR [4]; literature, read-out: IC50 PDGFR (PDGFRα/β)): 7.28
pIC50 (FGFR; unit inferred): 5.36
peak plasma level [5]: 1.76 µM
plasma level 8 hours after dosing [5]: above 1 μM

COc1cc2c(Oc3ccc4[nH]c(C)cc4c3F)ncnc2cc1OCCCN1CCCC1 [Cediranib]
PDGFR Inhibitory profile (with IC50s when available) (PDGFR [4]; Table 7): potent?

Cc1[nH]c(/C=C2\C(=O)Nc3ccccc32)c(C)c1CCC(=O)O [SU6668]
pIC50 (PDGFR [4]; [17]): 8.00

Cn1c(=O)c(-c2c(Cl)cccc2Cl)cc2cnc(Nc3cccc(CO)c3)nc21 [PD166326]
trough plasma level ([6]; 25 mg/kg): approximately 0.005 μM
peak plasma level ([6]; 25 mg/kg): 0.026 µM
trough plasma level ([6]; 50 mg/kg): ~0.018 µM
peak plasma level ([6]; 50 mg/kg): 0.098 µM

C[C@@H](Nc1ncnc2[nH]c(-c3ccc(O)cc3)cc12)c1ccccc1 [PKI-166]
EGFR Inhibitory profile (with IC50s when available) (EGFR): potent

Cc1ccc(NC(=O)c2ccc(CN3CCN(C)CC3)cc2)cc1Nc1nccc(-c2cccnc2)n1 [Imatinib]
IgM production by LPS-stimulated B cells ([7]; imatinib 1 μM): mildly reduced
IgM production by LPS-stimulated B cells ([7]; imatinib 10 μM): most significant reduction
onset and severity of EAE (EAE in C57B/6 mice): a delay in the onset and reduced severity of EAE
CIA efficacy compared to PBS vehicle-control ([3]; 15 mg/kg imatinib, FIG. 16A): relatively little efficacy
severity of CIA (mean visual arthritis score, mean paw thickness) ([3]; 33 or 100 mg/kg orally twice-daily from 1 day prior to induction, p<0.01 after day 38): significant reductions in the severity of CIA
incidence of CIA ([3]; 33 or 100 mg/kg orally twice-daily, day 49): reduced the incidence of CIA
severity of CIA (scores, paw measurements), direct comparison study ([3]; FIG. 13C-13D): statistically significant reductions in the severity of CIA
histopathology: synovitis, pannus, and erosion scores ([3]; CIA prevention study, 33 and 100 mg/kg, p<0.01 synovitis and erosion, p<0.05 pannus): statistically significant reductions in synovitis, pannus, and erosion scores
Early apoptosis (PI− AnnV+) (anti-CII T cells; [18]): 3.8%
Late apoptosis (PI+ AnnV+) (anti-CII T cells; [18]): 0.6%
Early apoptosis (PI− AnnV+) (anti-CII T cells; [19]): 5.2%
Late apoptosis (PI+ AnnV+) (anti-CII T cells; [19]): 1.2%
Early apoptosis (PI− AnnV+) (anti-CII T cells; [20]): 6.2%
Late apoptosis (PI+ AnnV+) (anti-CII T cells; [20]): 0.9%
Early apoptosis (PI− AnnV+) (anti-CII T cells; [21]): 4.6%
Late apoptosis (PI+ AnnV+) (anti-CII T cells; [21]): 1.1%
Live cells (PI− AnnV−) (anti-CII T cells; [21]): 95.5%
Early apoptosis (PI− AnnV+) (anti-CII T cells; [22]): 5.3%
Late apoptosis (PI+ AnnV+) (anti-CII T cells; [22]): 0.7%
Live cells (PI− AnnV−) (anti-CII T cells; [22]): 93.6%
Early apoptosis (PI− AnnV+) (anti-CII T cells; [23]): 6.6%
Late apoptosis (PI+ AnnV+) (anti-CII T cells; [23]): 0.9%
Live cells (PI− AnnV−) (anti-CII T cells; [23]): 93.7%
Early apoptosis (PI− AnnV+) (anti-CII T cells; anti-CII TCR transgenic, 1 μM): 3.4%
Late apoptosis (PI+ AnnV+) (anti-CII T cells; anti-CII TCR transgenic, 1 μM): 0.5%
Early apoptosis (PI− AnnV+) (anti-CII T cells; anti-CII TCR transgenic, 5 μM): 5.9%
Late apoptosis (PI+ AnnV+) (anti-CII T cells; anti-CII TCR transgenic, 5 μM): 0.8%
Early apoptosis (PI− AnnV+) (anti-CII T cells; anti-CII TCR transgenic, 10 μM): 6.1%
Late apoptosis (PI+ AnnV+) (anti-CII T cells; anti-CII TCR transgenic, 10 μM): 0.9%
differentiation of synovial fluid monocytes into macrophages (morphology) (synovial fluid monocytes): blocked the differentiation of synovial fluid monocytes from human RA patients into macrophages
expansion (epitope spreading) of autoreactive B cell responses [8]: reduced expansion of autoreactive B cell responses
mast cell production of TNFα, GM-CSF, and IL-6 (C1.MC/57.1 mast cells): dramatically reduced mast cell production of TNFα, GM-CSF, and IL-6
SCF-induced phosphorylation of c-Kit (c-Kit [9]; [24]): potently inhibited SCF-induced phosphorylation of c-Kit
phosphorylation of downstream Akt (Ser 473) (c-Kit [9]; [24]): corresponding reduction in phosphorylation of downstream Akt (Ser 473)
SCF-induced activation of kinases downstream of c-Kit (ERK, JNK, p38), RPP array (c-Kit [9]; 1 and 5 μM imatinib): inhibited SCF-induced activation of diverse protein tyrosine kinases downstream of c-Kit
progression of established arthritis (visual score, mean paw thickness) ([2]; 33 and 100 mg/kg, p<0.05 after 10 days of treatment): inhibited the progression of established arthritis
histopathology: synovitis, pannus, and erosion scores ([2]; treatment of established CIA, 33 and 100 mg/kg, p<0.05): statistically significant reductions in synovitis, pannus, and erosion scores
production of IFN-γ and TNFα by CII-stimulated TCR transgenic T cells ([10]; CII 20 μg/mL, 3.3 μM imatinib): moderate reduction
production of IFN-gamma, IL-4, and TNFα by CII-stimulated TCR transgenic T cells ([10]; CII 20 μg/mL, 10 μM imatinib): further reduced production
anti-CII T cell production of IL-2 ([10]; any imatinib concentration tested): not significantly reduced

Cc1cn(-c2cc(NC(=O)c3ccc(C)c(Nc4nccc(-c5cccnc5)n4)c3)cc(C(F)(F)F)c2)cn1 [Nilotinib]
pIC50 (PDGFR [4]; [17]): 9.00

Cc1ccc(NC(=O)c2ccccc2)cc1Nc1nccc(-c2cccnc2)n1 [CGP53716]
pIC50 (Abl): 6.22
plasma level ([11]; 8 hours after dosing): 1600 nM
plasma level ([11]; 24 hours after dosing): 1900 nM
severity of CIA (scores, paw measurements), direct comparison study ([3]; FIG. 13C-13D): statistically significant reductions in the severity of CIA
efficacy at preventing and treating CIA relative to imatinib ([3]; FIG. 13C-13D): nearly as effective as imatinib
pIC50 (FGFR): 5.96
pIC50 (c-Kit [12]): > 6.00
pIC50 (c-Kit [13]): 8.70
inhibition of other kinases including EGFR, FGFR, insulin receptors, Src, Lyn, PKA and PKC [14]: does not inhibit other kinases at clinically relevant concentrations

CC1(C)CNc2cc(NC(=O)c3cccnc3NCc3ccncc3)ccc21 [AMG 706]
PDGFR Inhibitory profile (with IC50s when available) (PDGFR [4]; Table 7): potent

CNC(=O)c1cc(Oc2ccc(NC(=O)Nc3ccc(Cl)c(C(F)(F)F)c3)cc2)ccn1 [Sorafenib]
PDGFR Inhibitory profile (with IC50s when available) (PDGFR [4]; Table 6): potent
